Broadly, the IC50 is the concentration that inhibits the measured activity by half. Higher therefore signals lower potency.

A value given as a limit tells only on which side of the number the result lay.

This passage reports IC50 results from patent publication US20240343727A1, “PYRIDAZINONE OR PYRIDINONE COMPOUNDS, PREPARATION METHODS AND USES THEREOF” (InventisBio Co., Ltd., priority 2021, published 2024).

For the experiment, the target named is T1, PARP7 (Homo sapiens, UniProt Q7Z3E1).
T1 sequence (Q7Z3E1 1-657): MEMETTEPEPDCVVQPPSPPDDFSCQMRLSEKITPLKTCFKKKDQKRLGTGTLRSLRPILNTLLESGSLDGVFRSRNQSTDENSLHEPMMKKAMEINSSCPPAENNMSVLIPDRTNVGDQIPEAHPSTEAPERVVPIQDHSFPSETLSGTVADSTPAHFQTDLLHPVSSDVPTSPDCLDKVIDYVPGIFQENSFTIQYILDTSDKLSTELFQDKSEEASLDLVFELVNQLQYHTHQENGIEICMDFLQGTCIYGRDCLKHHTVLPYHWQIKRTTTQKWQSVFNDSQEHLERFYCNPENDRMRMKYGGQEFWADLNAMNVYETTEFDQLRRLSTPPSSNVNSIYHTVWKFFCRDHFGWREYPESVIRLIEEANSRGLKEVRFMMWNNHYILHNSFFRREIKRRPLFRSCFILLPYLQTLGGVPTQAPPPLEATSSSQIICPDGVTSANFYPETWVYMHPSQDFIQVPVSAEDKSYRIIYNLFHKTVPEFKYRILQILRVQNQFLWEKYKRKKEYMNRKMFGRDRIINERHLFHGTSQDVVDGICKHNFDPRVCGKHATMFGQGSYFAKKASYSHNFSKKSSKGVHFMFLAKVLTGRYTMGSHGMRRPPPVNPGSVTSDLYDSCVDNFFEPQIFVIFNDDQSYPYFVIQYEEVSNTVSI
Kind of experiment: PARP7 TR-FRET assay (binding, displacement of biotinylated Probe A). To be noted: 6 nM PARP7, 2 nM Probe A, 25° C., 30 min. As to the method: Biological Assay Example A: PARP7 TR-FRET Assay
A time-resolved fluorescence energy transfer (TR-FRET) assay was used to test binding activity of compounds to PARP7. Two microliter test compound was added in 384-well plate. Reactions were performed in a 6 uL volume by adding 4 uL mixture of PARP7 and Probe A (a biotinylated probe binding to the PARP7: N-(6-(2-(4-((2-(6-oxo-5-(trifluoromethyl)-1,6-dihydropyridazin-4-yl) isoindolin-5-yl) oxy) piperidin-1-yl) acetamido) hexyl)-5-((3aS,4S,6aR)-2-oxohexahydro-1H-thieno [3,4-d]imidazol-4-yl) pentanamide, made as reported in WO2019212937A1) in assay buffer (20 mM HEPES pH 8.0, 100 mM NaCl, 0.1% BSA, 2 mM DTT and 0.002% Tween20). The final concentration of PARP7 and Probe A were 6 nM and 2 nM, incubating with test compounds at 25° C. for 30 min. Four microliter ULight-anti 6xHis and LANCE Eu-W1024 labeled streptavidin (PerkinElmer) were added with the final concentration of ULight-anti 6xHis and LANCE Eu-W1024 at 4 nM and 0.25 nM. The reaction mixture was incubated at 25° C. for 30 min. The plate was read on a Tecan Spark plate reader (excitation wavelength at 320 nm, emission wavelength at 615 nm and 665 nm with a 90 us delay. The ratio of the 665/615 nm emission was calculated for each well to the amount of complex of PARP7 and Probe A in each well was calculated. The 0.25% DMSO vehicle was used as control and no PARP7 well was as blank well. Inhibition rate is calculated with the formula of % inhibition=100-100*(TRFcmpd-TRFblank)/(TRFcontrol−TRFblank). Inhibition IC50 is calculated with the equation of Y=Bottom+ (Top-Bottom)/(1+10^((LogIC50−X) *Hill Slope))
(In general: In TR-FRET formats the signal depends on donor and acceptor labels being close together.)
For `C#Cc1cnc(N2CCN(C(=O)CC3CN(c4cc(C(F)(F)F)c(=O)[nH]n4)c4cc(C#N)ccc4O3)CC2)nc1` (single isomer, unassigned) [Compound 235], the IC50 was less than 100 nM.
`N#Cc1ccc(N2CCN(C(=O)CC3CN(c4cc(C(F)(F)F)c(=O)[nH]n4)c4cc(C#N)ccc4O3)CC2)nc1` (single isomer, unassigned) [Compound 215] displayed an IC50 of less than 100 nM.
Regarding `O=C([C@H]1CN(c2cc(C(F)(F)F)c(=O)[nH]n2)CCO1)N1CCN(c2ncc(C(F)(F)F)cn2)CC1` [Compound 33], the IC50 lay in the range of 100 to 1000 nM.
On to `C[C@@H]1C[C@@H](OCC(=O)N2CCN(c3ncc(C(F)(F)F)cn3)CC2)c2n[nH]c(=O)c(C(F)(F)F)c2O1` [Compound 56], for which the IC50 is less than 100 nM.
For `N#Cc1ccc2c(=O)[nH]nc(N3CCOC(CC(=O)N4CCN(c5ncc(C(F)(F)F)cn5)CC4)C3)c2c1` (single isomer, unassigned) [Compound 245], the IC50 was less than 100 nM.
`O=C(c1cccc(Oc2n[nH]c(=O)c(C(F)(F)F)c2NCC2CCOCC2)c1)N1CCN(c2ncc(C(F)(F)F)cn2)CC1` [Compound 203]: the IC50 was less than 100 nM.
Consider `O=C(c1cccc(Oc2n[nH]c(=O)c(C(F)(F)F)c2N2CC(F)C2)c1)N1CCN(c2ncc(C(F)(F)F)cn2)CC1` [Compound 85], for which the IC50 is less than 100 nM.
`O=C(CC1CN(c2cc(C(F)(F)F)c(=O)[nH]n2)c2ccccc2O1)N1CCn2c(nnc2C(F)(F)F)C1` (single isomer, unassigned) [Compound 290] returned an IC50 greater than 1000 nM.
`Cc1c(Sc2cccc(C(=O)N3CCN(c4ncc(C(F)(F)F)cn4)CC3)c2)n[nH]c(=O)c1C(F)(F)F` [Compound 62] gave an IC50 of less than 100 nM.
`N#Cc1cnc(N2CCN(C(=O)CC3CN(c4cc(C(F)(F)F)c(=O)[nH]n4)c4cc(C#N)ccc4O3)CC2)nc1` (single isomer, unassigned) [Compound 218]: the IC50 was less than 100 nM.
The value for `O=C(COC1CCOc2c1n[nH]c(=O)c2C(F)(F)F)N1CCN(c2ncc(C(F)(F)F)cn2)CC1` (single isomer, unassigned) [Compound 11] was greater than 1000 nM.
`CN(C)C1CN(c2c(Oc3cccc(C(=O)N4CCN(c5ncc(C(F)(F)F)cn5)CC4)c3)n[nH]c(=O)c2C(F)(F)F)C1` [Compound 82] registered an IC50 of less than 100 nM.
Under `O=C(CC1CN(c2n[nH]c(=O)c3ccccc23)CCO1)N1CCN(c2ncc(C(F)(F)F)cn2)CC1` (single isomer, unassigned) [Compound 107] stands 100 to 1000 nM; under `N#Cc1cnc(N2CCN(C(=O)CC3CN(c4cc(C(F)(F)F)c(=O)[nH]n4)c4ccccc4O3)CC2)nc1` (single isomer, unassigned) [Compound 250], less than 100 nM; under `CNCc1ccc2c(c1)N(c1cc(C(F)(F)F)c(=O)[nH]n1)CC(CC(=O)N1CCN(c3ncc(C(F)(F)F)cn3)CC1)O2` (single isomer, unassigned) [Compound 297], 100 to 1000 nM.
As for `O=C(CC1CN(c2n[nH]c(=O)c3ccc(Cl)cc23)CCO1)N1CCN(c2ncc(C(F)(F)F)cn2)CC1` (single isomer, unassigned) [Compound 122], the IC50 was 100 to 1000 nM.
Compound `O=C(CC1CN(c2cc(C(F)(F)F)c(=O)[nH]n2)c2ccccc2O1)N1CCN(c2ccc(Cl)cn2)CC1` (single isomer, unassigned) [Compound 261] came in with an IC50 of less than 100 nM.
`O=C(c1cccc(Oc2n[nH]c(=O)c(C(F)(F)F)c2N2CC3(C2)CC(F)(F)C3)c1)N1CCN(c2ncc(C(F)(F)F)cn2)CC1` [Compound 175] yielded an IC50 of less than 100 nM.
On to `CN(C)c1c(Oc2cccc(C(=O)N3CCN(c4ncc(C(F)(F)F)cn4)CC3)c2)n[nH]c(=O)c1C(F)(F)F` [Compound 83], for which the IC50 is less than 100 nM.
The value for `COC[C@H]1C[C@@H]1Nc1c(Oc2cccc(C(=O)N3CCN(c4ncc(C(F)(F)F)cn4)CC3)c2)n[nH]c(=O)c1C(F)(F)F` [Compound 198] was less than 100 nM; that for `O=C(c1cncc(Oc2n[nH]c(=O)c(C(F)(F)F)c2N2CC3(C2)CC(F)(F)C3)c1)N1CCN(c2ncc(Cl)cn2)CC1` [Compound 277] was less than 100 nM; that for `COCCNc1c(Oc2cccc(C(=O)N3CCN(c4ncc(C(F)(F)F)cn4)CC3)c2)n[nH]c(=O)c1C(F)(F)F` [Compound 169] was less than 100 nM.
`C#Cc1ccc2c(=O)[nH]nc(N3CCOC(CC(=O)N4CCN(c5ncc(C(F)(F)F)cn5)CC4)C3)c2c1` (single isomer, unassigned) [Compound 195] registered an IC50 of less than 100 nM.
For the compound `O=C(CC1CN(c2cc(C(F)(F)F)c(=O)[nH]n2)c2ccccc2O1)N1CCN(c2ncc(C(F)F)cn2)CC1` (single isomer, unassigned) [Compound 249], the IC50 fell in the range of 100 to 1000 nM.
In turn, `Cc1c(N2CCOC(CC(=O)N3CCN(c4ncc(C(F)(F)F)cn4)CC3)C2)n[nH]c(=O)c1C(F)(F)F` (single isomer, unassigned) [Compound 38] displayed an IC50 of less than 100 nM.
As for `N#Cc1ccc(N2CCN(C(=O)c3cc(Oc4n[nH]c(=O)c(C(F)(F)F)c4N4CC5(CCC5)C4)ccn3)CC2)nc1` [Compound 274], the IC50 is less than 100 nM.
`O=C(CC1CN(c2cc(C(F)(F)F)c(=O)[nH]n2)c2ccc(Cl)cc2O1)N1CCN(c2ncc(C(F)(F)F)cn2)CC1` (single isomer, unassigned) [Compound 163] came in with an IC50 of less than 100 nM.
In turn, `N#Cc1ccc(N2CCN(C(=O)CC3CN(c4cc(C(F)(F)F)c(=O)[nH]n4)c4ccccc4O3)CC2)nc1` (single isomer, unassigned) [Compound 222] yielded an IC50 of 100 to 1000 nM.
Consider `O=C(CC1CN(c2n[nH]c(=O)c3ccc(Cl)cc23)CCO1)N1CCN(c2ncc(C(F)(F)F)cn2)CC1` (single isomer, unassigned) [Compound 100], for which the IC50 was less than 100 nM.
In turn, `N#Cc1ccc2c(c1)N(c1cc(C(F)(F)F)c(=O)[nH]n1)CC(CC(=O)N1CCN(c3ncc(C(F)(F)F)cn3)CC1)O2` (stereo not shown) [Compound 136] came in with an IC50 of less than 100 nM.
In the case of `O=C(CC1CN(c2cc(C(F)(F)F)c(=O)[nH]n2)c2ccccc2O1)N1CCN(c2ccc(C(F)(F)F)cn2)CC1` (single isomer, unassigned) [Compound 247], the IC50 lay in the range of 100 to 1000 nM.
`N#Cc1cnc(N2CCN(C(=O)CC3CN(c4cc(C(F)(F)F)c(=O)[nH]n4)c4cc(Cl)ccc4O3)CC2)nc1` (single isomer, unassigned) [Compound 294] displayed an IC50 of 100 to 1000 nM.
For `O=C(c1cncc(Oc2n[nH]c(=O)c(C(F)(F)F)c2N2CC3(CCCO3)C2)c1)N1CCN(c2ncc(C(F)(F)F)cn2)CC1` [Compound 233], the IC50 is less than 100 nM.
For the compound `O=C(OC[C@@H]1CCCN1c1cc(C(F)(F)F)c(=O)[nH]n1)N1CCN(c2ncc(C(F)(F)F)cn2)CC1` [Compound 87], the IC50 is less than 100 nM.
`N#Cc1cnc(N2CCN(C(=O)CC3CN(c4cc(C(F)(F)F)c(=O)[nH]n4)c4cc(F)ccc4O3)CC2)nc1` (single isomer, unassigned) [Compound 264] returned an IC50 of less than 100 nM.
Compound `O=C(CC1CN(c2cc(C(F)(F)F)c(=O)[nH]n2)c2cc(F)ccc2O1)N1CCN(c2ncc(C(F)(F)F)cn2)CC1` (single isomer, unassigned) [Compound 131] displayed an IC50 of 100 to 1000 nM.
Consider `O=C(c1cncc(Oc2n[nH]c(=O)c(C(F)(F)F)c2N2CC3(C2)CC(F)(F)C3)c1)N1CCN(c2ncc(C(F)(F)F)cn2)CC1` [Compound 238], for which the IC50 is less than 100 nM.
